Experimental data reported in patent US20040001818A1, “Methods of inhibiting angiogenesis using NADPH oxidase inhibitors” (priority 2000, published 2004).
Like-named read-outs stand apart in the source and are kept apart here.

Assays:
ROS = ROS generation: DCF oxidation by flow cytometry in DCFDA-labeled HCAECs; assay type: cell-based, human; details: relative to basal rate of control cells
Experimental: (§1) Western blot analyses. Whole cell protein extracts were prepared from serum-starved HCAECs and HPAECs one hour following addition of growth factor-supplemented or mock-treated media. Cells were washed twice with cold phosphate-buffered saline, harvested with a cell scraper, and lysed in ice-cold lysis buffer containing 20 mM HEPES, pH 7.5, 150 mM NaCl, 1% NP-40, 0.1% SDS, 1 mM EDTA, 1 mM DTT, 0.5 mM phenylmethylsulfonyl fluoride (PMSF), and the protease inhibitor cocktail (Boehringer Mannheim, Mannheim, Germany) for one hour. The resulting lysates were centrifuged at 10,000× g for 20 minutes and the supernatants were saved as whole cell protein extracts. Forty micrograms of protein were separated by 10% SDS-PAGE and electrotransferred to nitrocellulose membranes. Membranes were blocked with 5% nonfat dry milk in Tris-buffered saline with 0.1% Tween 20 for one hour at room temperature. The blot was incubated with primary rabbit polyclonal anti-MnSOD IgG (1:1000 dilution) (Santa Cruz Biotechnology Inc., Santa Cruz, Calif., USA) overnight at 4° C., followed by secondary antibody goat-anti-rabbit horseradish peroxidase conjugate (1:1000 dilution) (Pierce, Rockford, Ill., USA). The blot was washed extensively between each incubation step. Peroxidase activity was visualized with an enhanced chemiluminescense substrate system (Amersham, Arlington Heights, Ill., USA). Membranes were stripped and probed for eNOS and β-actin. Flow cytometry. Endothelial cells were labeled with DCFDA and oxidation of DCF was measured by flow cytometry.
To test whether VEGF increases ROS production in endothelial cells, HCAECs were labeled with […] DCFDA and oxidation of DCF was measured by flow cytometry. […] PMS is known to induce free oxygen radicals.

eNOS mRNA = details: either cell type (HCAEC, HPAEC), 40 ng/ml VEGF
Experimental: (§2) Cell culture. Human coronary artery endothelial cells (HCAECs) (Clonetics Corporation, San Diego, Calif., USA) and human pulmonary artery endothelial cells (HPAECs) were grown in Endothelial Growth Medium-2-MV (EGM-2-MV) BulletKit (Clonetics Corporation, San Diego, Calif., USA). At 80-90% confluence, the cells were serum-starved in DMEM containing 0.5% FBS for 24 hours and subsequently treated with VEGF-supplemented medium for the times indicated. Human recombinant VEGF was purchased from PeproTech, Inc. (Rocky Hill, N.J., USA). In inhibition studies, the serum-starved HCAEC cells were preincubated with diphenyleneiodonium (DPI), apocynin, allopurinol, L-NAME, or anthrone for one hour and then incubated in the absence or presence of 40 ng/ml VEGF for another hour. In other studies, the serum-starved cells were pretreated with the MEK inhibitor PD98059 at a final concentration of 50 μM or a specific PKC inhibitor bisindolylmaleimide I (BIM; CalBiochem, San Diego, Calif., USA) at a final concentration of 5 μM for 30 minutes prior to addition of growth factors. An equal amount of DMSO was added to the control plates. Northern blot analyses. Ten micrograms total RNA was loaded on a 0.7% formaldehyde-containing agarose gel. The RNA was transferred to nylon membrane, covalently cross-linked with UV radiation, prehybridized for 6 hours, and hybridized for 18 hours at 42° C. with a [^32P]dCTP-labeled cDNA probe containing MnSOD or eNOS cDNA sequence. The membranes were subsequently stripped and probed with a radiolabeled 18S-ribosome probe. For actinomycin D experiments, HCAEC cells were pretreated with 10 μg/ml actinomycin D (Sigma Chemical Company, St. Louis, Mo., USA) for 30 minutes before addition of VEGF and were harvested for total RNA one hour later.
(§3) To determine whether VEGF induced expression of MnSOD in primary endothelial cell cultures, HCAECs and HPAECs were serum starved for 24 hours, treated with 40 ng/ml VEGF for 0, 0.5, 1, 2, 4, 12 and 24 hours, and then harvested for total RNA. Northern blots were performed and probed for human MnSOD. […]

MnSOD mRNA [1] = details: HPAEC, 40 ng/ml VEGF
Experimental: as §2, §3

MnSOD mRNA [2] = test: Northern blot of MnSOD mRNA in HCAECs; assay type: cell-based, human
Experimental: as §2, with “In inhibition studies, the serum-starved HCAEC cells were preincubated with diphenyleneiodonium (DPI), apocynin, allopurinol, L-NAME, or anthrone for one hour and then incubated in the absence or presence of 40 ng/ml VEGF for another hour.” left out
To determine whether VEGF induced expression of MnSOD in primary endothelial cell cultures, HCAECs and HPAECs were serum starved for 24 hours, treated with 40 ng/ml VEGF for 0, 0.5, 1, 2, 4, 12 and 24 hours, and then harvested for total RNA. Northern blots were performed and probed for human MnSOD. […] The membranes were then stripped and reprobed for eNOS.
To determine whether the response of MnSOD to VEGF was mediated by ROS, HCAECs were serum starved and then treated with VEGF in the absence or presence of inhibitors of NADPH oxidase (DPI, apocynin), xanthine oxidase (allopurinol) and nitric oxide synthase (L-NAME).

MnSOD mRNA [3] = test: Northern blot of MnSOD mRNA in organs of mice after intraperitoneal VEGF; assay type: in vivo, mouse; details: four hours after intraperitoneal injection of 20 μg VEGF
Experimental: Mice and injection of growth factors. Female FVB mice (4 to 8 weeks old; 18 to 22 grams) were obtained from Taconic (Germantown, N.Y., USA). All protocols were approved by the Institutional Animal Care and Use Committee of the Beth Israel Deaconess Medical Center. Mice were injected intraperitoneally with VEGF (1.0 μg/g body weight).
Injection of VEGF into the intraperitoneal cavity of mice results in widespread distribution of the growth factor and phosphorylation of the VEGF receptor, Flk-1. In this study, therefore, organs were removed from mice four hours following intraperitoneal injection of either normal saline or 20 μg VEGF and harvested for total RNA. Northern blot analyses were then carried out to determine whether VEGF induced the expression of a panel of genes, including MnSOD.

eNOS protein = details: 40 ng/ml VEGF, any time point 0.5-24 hours
Experimental: as §1, with “Peroxidase activity was visualized with an enhanced chemiluminescense substrate system (Amersham, Arlington Heights, Ill., USA). Membranes were stripped and probed for eNOS and β-actin. Flow cytometry.” left out

MnSOD protein = details: 40 ng/ml VEGF; for MnSOD protein: 0.5-24 hours
Experimental: as §1
Serum-starved HCAECs and HPAECs were treated with 40 ng/ml VEGF for 0.5-24 hours and then harvested for total protein.

VEGF was tested, and the “DCF oxidation (ROS production)” value (ROS) was “no change”, the “eNOS mRNA induction” value (eNOS mRNA) was “not induced” and the “time of peak MnSOD mRNA levels” value (MnSOD mRNA [1]) was 4 h. For the same substance, the “MnSOD mRNA levels” value (MnSOD mRNA [1]; between 2 and 24 hours) was “increased”, the “time of peak MnSOD mRNA levels” value (MnSOD mRNA [2]; HCAEC, 40 ng/ml VEGF) was 4 h and the “MnSOD mRNA levels” value (MnSOD mRNA [2]; HCAEC, 40 ng/ml VEGF, between one hour and 24 hours) was “increased”. For the same substance, the “VEGF concentration of maximal MnSOD induction” value (MnSOD mRNA [2]; dose-response 0, 1, 5, 10, 100 ng/ml VEGF) was 100 ng/mL, the “MnSOD mRNA levels in other tissues (lung, brain, liver, spleen, skeletal muscle)” value (MnSOD mRNA [3]) was “not” and the “MnSOD mRNA levels in the heart and the kidney” value (MnSOD mRNA [3]) was “increased”. The eNOS protein levels (eNOS protein) was “did not increase”, the “time of maximal MnSOD protein levels” value (MnSOD protein; HCAECs) was 12 to 24 h and the MnSOD protein (MnSOD protein; HCAECs) was “significantly induced”. The “time of maximal MnSOD protein levels” value (MnSOD protein; HPAECs) was 12 to 24 h and the MnSOD protein (MnSOD protein; HPAECs) was “significantly induced”.
